Experimental data taken from US20260174860A1, “HYBRID COMPOUNDS OF SCLAREOL AND DOXORUBICIN, THEIR SYNTHESIS AND APPLICATION” (INSTITUTE FOR BIOLOGICAL RESEARCH "SINISA STANKOVIC" - …, priority 2023, published 2026).
Where two headings read alike, the source gives them in different places.

Experiments:
[1] = system: U87, U87-TxR, U251, NCI-H460, NCI-H460/R, DLD1, DLD1-TxR and MRC-5; assay: MTT cytotoxicity across the cell line panel (FIG. 1); format: cell-based; conditions: Homo sapiens
Method: The MTT test was used to evaluate the effect of the compounds on cell viability. The test relies on the reduction of tetrazolium salt (MTT) to formazan, which is catalyzed by the mitochondrial enzyme succinate dehydrogenase. The activity of succinate dehydrogenase, which is indicative of mitochondrial respiration, is taken as an indirect measure of the metabolic activity of the cell, and thus its viability. The MTT-formazan produced is a purple-colored product, whose absorbance is measured at a wavelength of 570 nm. • a) To determine the inhibition of cell growth by SC, different cell lines were exposed to increasing concentrations of SC (5, 10, 25, 50, and 100 μM). […] The absorbance of the samples was measured at 570 nm using a Multiskan Sky Microplate spectrophotometer (ThermoFisher Scientific, USA). The results were analyzed using GraphPad Prism 8.0.2. software, and the IC50 values were determined by non-linear regression. • b) To test the interaction between SC and DOX in terms of cytotoxicity in different cell lines, cells were seeded in 96-well microtiter plates at a density of 2,000 cells per well for NCI-H460, NCI-H460/R, DLD1 and DLD1-TxR, and 4,000 cells per well for MRC-5, U87, U87-TxR, and U251 in 100 μl of the appropriate medium. […]

[2] = system: Balb/c mice; assay: Comparative toxicology study of DOX and CON1; format: in vivo; conditions: i.p.; for creatine phosphokinase (CPK): after 72 h, only DOX significant; for other blood parameters (RBC, HGB, HCT, MCV, MCH, MCHC, RDW, PLT, MPV): data not shown; for percentage of lymphocytes (% LYM, LYM, WBC) / percentage of monocytes and granulocytes (% MON and % GRA): over time
Method: Male Balb/c mice, aged 7-11 weeks, were sourced from the EL-42BIO/Br-01 (Laboratory of Pharmacology, School of Medicine, University of Thessaly, Larissa, Greece). The mice were kept in an environment with a 12-hour light/dark cycle, humidity of around 50-60%, and a temperature of 20-22° C. They had free access to food and water. The handling and experimentation of the mice were conducted in compliance with the Greek laws (PD 56/2013 and Circular 2215/117550/2013) and the European Union guidelines ([…]). The protocol was approved by the IACUC and Greek authorities (License no. 58376/13.02.2023). The mice were divided into three groups with two mice per group, amounting to a total of 18 mice. They were treated as follows: Group 1 received vehicle (10% DMSO and 5% Tween80); Group 2-DOX received 7 mg/kg of body weight via intraperitoneal injection (i.p.); Group 3 received CON1 at 14 mg/kg of body weight (to achieve a DOX concentration of 7 mg/kg of body weight), i.p. The study took place over three time points: 24 h, 48 h and 72 h. At the end of each period, blood samples were collected from the mice's tails and cheeks, and the mice were euthanized by CO2 inhalation followed by cervical dislocation. Fresh blood samples were analyzed using the scil Vet ABC™Hematology Analyzer (scil animal care company GmbH, Germany), while sera from all samples were extracted and analyzed using the Skyla VB1 Veterinary Clinical Chemistry Analyzer (Skyla Corporation, Taiwan) with the Critical Care Panel (900-330) (Skyla Corporation, Taiwan).

[3] = system: spheroids of ovarian cancer cell lines that are resistant to DOX; conditions: effect of SC; cited from earlier work
[4] = Zetasizer measurement of size, polydispersity and zeta potential; format: physicochemical; conditions: 25° C., diluted 100 times with ultrapure water, mean of three
Method: The Malvern Zetasizer Nano ZS (Malvern Instruments, United Kingdom) was used to analyze the physico-chemical stability characteristics of conjugates. The measurement range was from 0.6 nm up to […]. The mean size of conjugates, the polydispersity index (PDI) and zeta potential were measured. All measurements were taken at a temperature of 25° C. and each sample was diluted 100 times with ultrapure water. The measurements were repeated three times, and the results were presented as the mean value. PDI is a parameter used to define the size range of particles. The term “polydispersity” (or “dispersity” as recommended by IUPAC) describes the degree of non-uniformity of a size distribution of particles. Zeta potential represents the surface charge of nanoparticles and indicates their long-term stability.

[5] = DOX 7 mg/kg, CON1 14 mg/kg, 24, 48, 72 h
[6] = CON1 14 mg/kg, at 48 h, disappeared after 72 h

Molecule | IC50 ([1]; micromolar range in resistant lines, nanomolar in sensitive ones, read-out: DOX active concentration in resistant cancer cell lines) [µM] | alanine aminotransferase (ALT) [2, 5] | alkaline phosphatase (ALP) [2, 5] | creatine phosphokinase (CPK) ([2]; DOX 7 mg/kg, CON1 14 mg/kg) | other blood parameters (RBC, HGB, HCT, MCV, MCH, MCHC, RDW, PLT, MPV) ([2]; DOX 7 mg/kg, CON1 14 mg/kg) | percentage of lymphocytes (% LYM, LYM, WBC) ([2]; DOX 7 mg/kg, CON1 14 mg/kg) | percentage of monocytes and granulocytes (% MON and % GRA) ([2]; DOX 7 mg/kg, CON1 14 mg/kg) | levels of K ([2]; DOX 7 mg/kg, 24, 48, 72 h) | IC50 ([1]; range depending on the cell type, FIG. 1, MTT 72 h, read-out: IC50 value of 50% inhibition of cell growth) [µM] | accumulation of DOX in spheroids [3] | increase of the cytotoxicity of DOX [3] [times] | Z-Average [4] [nm·days] | percentage of eosinophils (% EOS) ([2]; CON1 14 mg/kg) | Ca levels [2, 6] | Na levels [2, 6] | total bicarbonate (tCO2) ([2]; CON1 14 mg/kg, at 48 h, disappeared by 72 h)
COc1cccc2c1C(=O)c1c(O)c3c(c(O)c1C2=O)C[C@@](O)(C(=O)CO)C[C@@H]3O[C@H]1C[C@H](N)[C@H](O)[C@H](C)O1 [DOX, doxorubicin] | < 5 | increase | significantly decrease | increased | None of the tested compounds, DOX or CON1, had any impact | decreased | increased | consistently increased |  |  |  |  |  |  |  | 
C=C[C@](C)(O)CC[C@@H]1[C@@]2(C)CCCC(C)(C)[C@@H]2CC[C@@]1(C)O [SC, sclareol] |  |  |  |  |  |  |  |  | 20 to 70 | did not enhance | 4.5 |  |  |  |  | 
N1-((25,3S,4S,6R)-3-hydroxy-2-methyl-6-(((1S,3S)-3,5,12-trihydroxy-3-(2-hydroxyacetyl)-10-methoxy-6,11-dioxo-1,2,3,4,6,11-hexahydrotetracen-1-yl)oxy)tetrahydro-2H-pyran-4-yl)-N4-(3-((4-((R,E)-3-hydroxy-5-((1R,2R,4aS,8aS)-2-hydroxy-2,5,5,8a-tetramethyldecahydronaphthalen-1-yl)-3-methylpent-1-en-1-yl)benzyl)amino)propyl) succinamide [CON1] |  | did not change | increase ALP levels after 48 h | increased | None of the tested compounds, DOX or CON1, had any impact | did not have any impact | did not have any impact |  |  |  |  | 189.4 ± 9.7 | not significantly relevant | temporary increase | decrease | transiently increased
